Results reported in patent publication US20240358705A1, “COMPOSITIONS AND METHODS FOR TREATMENT OF CANCER” (Board of Supervisors of Louisiana State University and …, priority 2021, published 2024).

Columns and labels:
CD3 T cells = details: activated CD3 T cells, 3 μM or 10 μM, 72 hours
Method: (§1) Lymph nodes and spleen were isolated from wild-type C57BL/6N mice. Tissue was mechanically dissociated with the back of a syringe plunger and passed through a 70 M filter. […] Treated cells were incubated at 37° C., 5% CO2 for the designed study duration.
Protein concentration was quantified using a BCA protein assay kit (Thermo #A53225). […] of protein diluted with 1×LDS sample buffer (Life Technologies #B0008) and 1×sample reducing agent (Life Technologies #B0009), were denatured at 95° C. for 5 minutes. Denatured T cell protein was resolved using a 10% Bolt Bis-Tris plus protein gel (Thermo #NW00102BOX) and denatured BM-MDSC protein was resolved using an 8% Bolt Bis-Tris plus protein gel (Thermo #NW00082BOX). Gels were transferred to a PVDF membrane (Invitrogen #IB401002) using a seven-minute P3 program on an Invitrogen iBlot dry transfer system. Membranes were then blocked for one hour using 5% nonfat dry milk in TBS-T, washed three times with TBS-T and probed with primary antibody diluted with 5% BSA in TBS-T overnight at 4° C. with gentle rocking. Primary antibody was removed, and membranes were washed three times with TBS-T followed by secondary antibody diluted in TBS-T at room temperature for one hour with gentle rocking. […] Secondary antibodies used were anti-mouse-HRP (Kindle Biosciences #R1005) and anti-rabbit-HRP (Kindle Biosciences #R1006). […]

CD8 T cells [1] = experiment: CFSE labeling and T cell proliferation; assay type: cell-based, mouse; details: 72 hours
Method: Lymph nodes and spleen were isolated from wild-type C57BL/6N mice. Tissue was mechanically dissociated with the back of a syringe plunger and passed through a […] filter. […] Treated cells were incubated at 37° C., 5% CO2 for the designed study duration. Isolated CD3 T cells were labeled with 1 μM CFDA SE (Thermo #V12883) for 15 minutes at 37° C. protected from light. […] Cells were pelleted, resuspended and plated in an antibody coated well with the indicated drug concentrations at time zero. Activated T cells were incubated at 37° C., 5% CO2 for 72 hours. After study duration, T cells were stained with anti-CD4, anti-CD8, anti-CD3 following the immune profiling by flow cytometry method and proliferation was measured by CFSE dilution.

CD8 T cells [2] = experiment: XFe ATP rate assay, CD8 T cells; assay type: cell-based, mouse; details: 10 μM, 72 hours
Method: as §1
(§2) Treated CD8 T cell were prepared following the in vitro T cell activation method and incubated for 72 hours at 37° C., 5% CO2. Treated BM-MDSCs were prepared followed the in vitro BM-MDSCs differentiation method. The XFe ATP rate assay preparation and analysis was conducted following the manufacturer's user guide and instructions. […] Treated cells were removed from culture, pelleted and resuspended in warm assay medium at a concentration of 3×10^6 cells/ml (1.5×10^5 cells/well) for CD8 T cells and 2.6×10^6 cells/ml (1.3×10^5 cells/well) for BM-MDSCs. Cells were adhered to the culture plate by centrifugation 200×G, for one minute with zero brake per the manufacturer's instructions for immobilization of non-adherent cells (Agilent, Santa Clara, CA). […] Results were procured using the Seahorse XF real-time ATP rate assay report generator.

CD8 T cells [3] = experiment: Quantitative PCR of glycolysis enzymes; assay type: cell-based, mouse; details: 3 μM and 10 μM, 48 hours
Method: as §1

BM-MDSCs = experiment: XFe ATP rate assay, BM-MDSCs; assay type: cell-based, mouse; details: 10 μM, 72 hours
Method: Bone marrow cells were isolated by flushing the tibia and femurs of wild-type C57BL/6N mice. […] To generate BM-MDSCs, 3×10^6 cells were plated in a 6-well dish and incubated at 37° C., 5% CO2 for 96 hours. For treatment, drugs were administered at either 3 μM or 10 μM concentrations and added to the BM-MDSC cell culture well 24 hours after plating.
as §2

[4] = tested on: adoptively transferred CD8 OT-I T cells; experiment: Immune profiling and proliferation of in vivo vaccinated CD8 T cells; design: species or system mouse; details: for OT-I CD8 T cell proliferation, lymph node: vehicle MC 49.37%; for effector/memory CD8 OT-I T cells, splenic compartment: vehicle MC 12.53%; for adoptively transferred cells expressing PD-1, lymph node: vehicle MC 12.58%; for effector/memory CD8 OT-I T cells, lymph node: vehicle MC 23.11%; for OT-I CD8 T cell proliferation, splenic compartment: vehicle MC 30.68%; for naïve CD8 OT-I T cells, splenic compartment: vehicle MC 46.68%; for naïve CD8 OT-I T cells, lymph node: vehicle MC […]
Method: Five hours later, mice were vaccinated by subcutaneous injection with […] (SEQ ID NO: 1) in IFA. 16 hours after vaccination, mice were administered 30 mg/kg or 90 mg/kg GLPG1205 suspended in 0.5% methylcellulose (Sigma #M0430100G) with 0.5% Tween-80 (Sigma #P4780100ML) (MC) orally once daily for three days. 96 hours post-vaccination, lymph node and spleen tissue were isolated for analysis. Single-cell suspensions were treated with ACK lysis to remove red blood cells, and then stained following the immune profiling by flow cytometry method. Treatment effectiveness was determined by the percent proliferation and PD-1 expression of adoptively transferred cells.

[5] = interstitial pulmonary fibrosis; cited from earlier work
[6] = cited from earlier work

With O=c1nc(OC[C@@H]2COCCO2)cc2n1CCc1cc(C#CC3CC3)ccc1-2 [GLPG1205, 9-Cyclopropylethynyl-2-((S)-1-[1,4]dioxan-2-ylmethoxy)-6,7-dihydropyrimido[6,1-a]isoquinolin-4-one] the GPR84 expression (CD3 T cells) was “did not significantly affect GPR84 expression”, the “CD8 T cell proliferation, Log2 fold change compared DMSO control” value (CD8 T cells [1]; 3 μM) was 0.48 Log2 fold change and the “CD8 T cell proliferation, increase vs DMSO” value (CD8 T cells [1]; 3 μM) was 39.3%. The “CD8 T cell proliferation, Log2 fold change compared DMSO control” value (CD8 T cells [1]; 10 μM) was 0.78 Log2 fold change, the “CD8 T cell proliferation, increase vs DMSO” value (CD8 T cells [1]; 10 μM) was 71.7% and the “percent of ATP generated by OXPHOS” value (CD8 T cells [2]; DMSO 49%) was 39.7%. For the same compound, the “percent of ATP generated by glycolysis” value (CD8 T cells [2]; DMSO 51%) was 60.3%, the “ATP production rate through mitochondrial OXPHOS (mitoATP)” value (CD8 T cells [2]; DMSO 392.74) was 486.75 pmol/min and the “ATP production rate through glycolysis (glycoATP)” value (CD8 T cells [2]; DMSO 409.61) was 737.62 pmol/min. For the same compound, the “total ATP production rate” value (CD8 T cells [2]; DMSO control 816.19) was 1224.27 pmol/min, the “OCR, ECAR and PER” value (CD8 T cells [2]; vs DMSO) was “raises the overall OCR, ECAR, and PER” and the “gene expression of enzymes in glycolytic pathway compared to DMSO control” value (CD8 T cells [3]) was “significant dose-dependent increase”. For the same compound, the “energetic phenotype (energetic map)” value (BM-MDSCs) was “glycolytic-predominant quiescent phenotype”, the “percent of ATP generated by glycolysis” value (BM-MDSCs; DMSO 39.85%) was 45.55% and the “percent of ATP generated by OXPHOS” value (BM-MDSCs; DMSO 60.15%) was 54.45%. The “ATP production rate through mitochondrial OXPHOS” value (BM-MDSCs; DMSO 690.95) was 537.83 pmol/min, the “total ATP production rate” value (BM-MDSCs; DMSO control 1149.1) was 987.48 pmol/min and the “ECAR and PER” value (BM-MDSCs; vs DMSO) was “did not observe any changes”. The OCR (BM-MDSCs; vs DMSO) was “overall reduction in OCR”, the “PD-1 expression, splenic compartment, compared to MC vehicle” value ([4]; 30 mg/kg or 90 mg/kg) was “no significant increase” and the “OT-I CD8 T cell proliferation, lymph node” value ([4]; 30 mg/kg orally once daily for 3 days) was 73.84%. For the same compound, the “effector/memory CD8 OT-I T cells, splenic compartment” value ([4]; 30 mg/kg) was 30.12%, the “adoptively transferred cells expressing PD-1, lymph node” value ([4]; 30 mg/kg) was 16.05% and the “effector/memory CD8 OT-I T cells, lymph node” value ([4]; 30 mg/kg) was 47.38%. For the same compound, the “OT-I CD8 T cell proliferation, splenic compartment” value ([4]; 30 mg/kg) was 50.99%, the “naïve CD8 OT-I T cells, splenic compartment” value ([4]; 30 mg/kg) was 26.16% and the “naïve CD8 OT-I T cells, lymph node” value ([4]; 30 mg/kg) was 12.87%. For the same compound, the “OT-I CD8 T cell proliferation, lymph node” value ([4]; 90 mg/kg orally once daily for 3 days) was 74.56%, the “adoptively transferred cells expressing PD-1, lymph node” value ([4]; 90 mg/kg, non-significant increase) was 15.75% and the “effector/memory CD8 OT-I T cells, splenic compartment” value ([4]; 90 mg/kg) was 37.72%. The “effector/memory CD8 OT-I T cells, lymph node” value ([4]; 90 mg/kg) was 53.97%, the “OT-I CD8 T cell proliferation, splenic compartment” value ([4]; 90 mg/kg) was 59.35% and the “naïve CD8 OT-I T cells, splenic compartment” value ([4]; 90 mg/kg) was 16.37%. The “naïve CD8 OT-I T cells, lymph node” value ([4]; 90 mg/kg) was 9.48%, the “fibrosis, over the standard of care” value [5] was “non-significant reduction in fibrosis” and the “inflammatory response in ulcerative colitis” value ([6]; in vivo) was “unable to improve the inflammatory response”. For the same compound, the “adverse outcome in ulcerative colitis study” value ([6]; led to the drug's discontinuation) was “worsening of colitis in certain patients”.
